Paper PMC7932537, “Quantitative profiling of protease specificity” (PLoS Computational Biology, 2021)

Legend:
[1] = test system: MMP-2; experiment: N-terminomic (TMT) analysis of MMP-treated HEK293 secretome: isotopic enrichment of novel N-termini; type: biochemical, human; conditions: for isotopic enrichment (log2(ratio)): MMP2 cleavages in HEK293 cell proteins, determined by LC-MS/MS, novel N-termini, sections log2(ratio) >3σ, 2σ-3σ, 1σ-2σ, RP above 4.5
Description: (§1) This was done to achieve a reasonable compromise between the false positive and false negative rates based on the statistical model developed by the authors. […] (See Methods for details).
(§2) HEK293 cells were seeded in 150-mm tissue culture dishes (Corning) and grown to confluence. The confluent cultures were washed with PBS several times to remove serum proteins and kept in serum-free DMEM supplemented with 1 μM GM6001 for 72 hours at 37 C, 5% CO2. The conditioned media was centrifuged at 10,000 x g for 30 minutes at 4 C and concentrated ~100-fold using Centricon Plus-70 (AMD Millipore) 3-kDa m.w. cut-off ultrafilter, and the buffer was exchanged to 50 mM HEPES pH 7.0 containing 150 mM NaCl and 10 mM CaCl2 (Reaction Buffer) using a PD-10 desalting column (GE Healthcare). Aliquots containing 240 μg total protein were incubated at 37 C in the presence of 750 nM MMP2 or 9 or the Reaction Buffer alone for 2 hours. Each reaction was carried out in duplicate. The reactions were stopped by addition of 20 mM EDTA and subjected to denaturation/reduction (4M Urea and 10 mM TCEP, 1 h, 22°C) and alkylation (20 mM iodoacetamide, 30 min, 22°C, in dark). […] The TMT-labeled samples were pooled together, and subjected to TCA precipitation (20% TCA, 16 h, 4°C). Each pellet was washed with -20°C acetone, recovered in 50 mM Tris-HCl pH 8.0, and then digested with trypsin/Lys-C (Promega) for 16 h at 37°C. Digestions were stopped with 0.2% TFA and centrifuged to remove insoluble material. The supernatants were then desalted using Sep-Pak C18 cartridge (50 mg), and then lyophilized.
(§3) Dried pooled sample was reconstituted in 20 mM ammonium formate pH ~10 and fractionated using a Waters Acquity BEH C18 column (2.1x 15 cm, 1.7 μm pore size) mounted on an M-Class Ultra Performance Liquid Chromatography (UPLC) system (Waters). […] A total of 32 fractions were collected and pooled in a non-contiguous manner into 16 total fractions. Pooled fractions were dried to completeness in a SpeedVac concentrator prior to mass spectrometry analysis.
(§4) Dried peptide fractions were reconstituted with 2% ACN-0.1% FA and analyzed by LC-MS/MS using a Proxeon EASY nanoLC system (Thermo Fisher Scientific) coupled to a Q-Exactive Plus mass spectrometer (Thermo Fisher Scientific). […] The mass spectrometer was operated in positive data-dependent acquisition mode. MS1 spectra were measured with a resolution of 70,000 (AGC target: 1e6; mass range: 350–1700 m/z).
(§5) The false discovery rate (FDR) filter for spectrum and protein identification was set to 1%. Carbamidomethylation of cysteines was searched as a fixed modification, while oxidation of methionines and N-terminal acetylation were searched as variable modifications. Enzyme was set to trypsin in a semispecific mode and a maximum of two missed cleavages was allowed for searching. To obtain quantification of the TMT-labeled N-termini, two independent searches were performed–one with TMT10plex MS2 N-terminal reporter quantification and the other for quantification of N-terminal and lysine sidechain.

[2] = test system: MMP-9; experiment: as above; type: biochemical, human; conditions: for isotopic enrichment (log2(ratio)) (acc.to MMP9): HEK293 proteins; for isotopic enrichment (log2(ratio)): MMP9 cleavages in HEK293 cell proteins, determined by LC-MS/MS, log2(ratio) range (>3σ, 2σ-3σ, 1σ-2σ)
Description: as §1, §2, §3, §4, §5

[3] = MMP2 cleaved HEK293 proteins, common set of MMP2-9 selectome, LC-MS/MS
[4] = MS detected cleavage sequence, HEK293 proteins, common MMP2-9 selectome
[5] = MMP9, common set of MMP2-9 selectome, LC-MS/MS
[6] = MS detected cleavage sequence, common MMP2-9 selectome
[7] = MS detected cleavage sequence, HEK293 proteins, unique part of MMP2 selectome
[8] = MS detected cleavage sequence, unique part of MMP2 selectome

| Substance | isotopic enrichment (log2(ratio)) (acc.to MMP2) [1, 3] | isotopic enrichment (log2(ratio)) (acc.to MMP2) [1, 4] | isotopic enrichment (log2(ratio)) (acc.to MMP9) [2, 5] | isotopic enrichment (log2(ratio)) [2] | isotopic enrichment (log2(ratio)) (acc.to MMP9) [2, 6] | isotopic enrichment (log2(ratio)) (acc.to MMP2) [1, 7] | isotopic enrichment (log2(ratio)) (acc.to MMP9) [2, 8] | isotopic enrichment (log2(ratio)) [1] |
| --- | --- | --- | --- | --- | --- | --- | --- | --- |
| PTPVP-VVGSQM | 1.915 | 1.915 log2(ratio) | 2.707 | 2.707 | 2.707 log2(ratio) | – | – | – |
| FSLFG-LGGEPG | 1.417 | 1.417 log2(ratio) | 2.104 | 2.104 | 2.104 log2(ratio) | – | – | – |
| AGARG-IQGPQG | – | 0.8156 log2(ratio) | – | 1.521 | 1.521 log2(ratio) | – | – | – |
| VNPVL-LSGPEA | 1.599 | 1.599 log2(ratio) | 2.457 | 2.457 | 2.457 log2(ratio) | – | – | – |
| FHPEQ-LITGKE | 2.036 | 2.036 log2(ratio) | 2.628 | 2.628 | 2.628 log2(ratio) | – | – | – |
| YNPMA-LYGSVP | – | 0.669 log2(ratio) | – | 1.709 | 1.709 log2(ratio) | – | – | – |
| PEPES-WNAAQH | – | – | – | – | – | 1.66 log2(ratio) | 1.956 log2(ratio) | – |
| GLPRE-LAEAVA | – | 0.7485 log2(ratio) | – | 2.272 | 2.272 log2(ratio) | – | – | – |
| MPMF-IVNTNV | – | 0.8319 log2(ratio) | – | 1.66 | 1.66 log2(ratio) | – | – | – |
| ETAIN-ITTYPD | 1.84 | 1.84 log2(ratio) | 2.536 | 2.536 | 2.536 log2(ratio) | – | – | – |
| RTLRA-VCGQPG | – | 0.2987 log2(ratio) | – | 1.47 | 1.47 log2(ratio) | – | – | – |
| DMAAA-MKAVTE | 1.766 | – | 1.328 | – | – | – | – | 1.766 log2(ratio) |
| GEVQA-MLGQST | – | 0.5656 log2(ratio) | – | 1.4957 | 1.4957 log2(ratio) | – | – | – |
| IFLRE-LISNAS | 1.176 | 1.176 log2(ratio) | 1.628 | 1.628 | 1.628 log2(ratio) | – | – | – |
| QLNAQ-LAAGNP | – | – | – | – | – | 1.66 log2(ratio) | 0.8237 log2(ratio) | – |
| KYIGN-MHGNEA | 1.124 | – | 1.07 | – | – | – | – | 1.124 log2(ratio) |
| GFLAW-LYNESP | 2.43 | 2.43 log2(ratio) | 1.774 | 1.774 | 1.774 log2(ratio) | – | – | – |
| TQQAQ-LAAAAE | – | – | – | – | – | 2.74 log2(ratio) | 0.8319 log2(ratio) | – |
| PQAKA-LLQDKD | – | 0.9928 log2(ratio) | 1.48 | 1.48 | 1.48 log2(ratio) | – | – | – |
| GRSAP-LAAGCP | – | – | – | – | – | 3.5097 log2(ratio) | 3.246 log2(ratio) | – |
